From patent publication US6348571B1, “Corticotropin release inhibiting factor and methods of using same” (Northwestern University, priority 1994, dated 2002)
Ends that are not written are not given here.

Columns and labels:
AtT-20 cells = experiment: Bioassay of synthetic prepro-TRH peptides: ACTH secretion in AtT-20 cells; type: cell-based, mouse; conditions: peptide 10^-10-10^-6 M, 4 hours, 50 nM CRF
Method: (§1) The bioactivity of various synthetic peptides corresponding to the various prepro-TRH intervening sequences was assessed in AtT-20 or primary anterior pituitary cells. All experiments were conducted in triplicate. To perform this assay, AtT-20 cells were plated at a density of 10^5 cells/well in 24 well plates. After 24 hours, the medium was removed and replaced with steroid-free medium containing the test peptide at a concentration of 10^−10-10^−6 M. When primary pituitary cultures were used, freshly dispersed anterior pituitary cells (1-2×10^5 cells/well) were plated in 24 well plates for 48 hours using steroid free media. Again, after 24 hours, the medium was removed and replaced with steroid-free medium containing the test peptide at a concentration of 10^−10-10^−6 M. The supernatants from the cells were harvested after 4 hours of incubation under unstimulated or CRF-stimulated conditions. AtT-20 cells were stimulated with 50 nM CRF and primary pituitary cells were stimulated with 10 nM CRF. The supernatants were centrifuged and stored at −80° C.
(§2) ACTH-like immunoreactivity was measured using an antiserum which reacts with amino acids 1-24 and 1-39 on ACTH on an equimolar basis. The assay is described in Redei et al. (1988, Endocrinology, 123:2736-2743). For these studies, ^125I-ACTH 1-39 was used as a tracer. This assay is capable of detecting as little as 3 pg ACTH/tube. Intraassay and interassay coefficients of variation were 6.4% and 11.6% respectively.
Peptides prepro-TRH 115-151, 160-169 and 178-199 were obtained from Penninsula Lab Inc. (Belmont, Calif.); peptides prepro-TRH 53-74, 83-106 and TRH precursor peptide (Lys-Arg-Gln-His-Pro-Gly-Lys-Arg) were obtained from American Peptide Co. Inc. (Sunnyvale, CA); and, peptides prepro-TRH 25-50, 208-220 and 230-255 were obtained from Quality Control QCB, Hopkington, Mass.

[1] = system: primary anterior pituitary cells; experiment: Bioassay of synthetic prepro-TRH peptides: ACTH secretion in primary anterior pituitary cells; type: cell-based; conditions: primary pituitary cell cultures, 10 nM CRF
Method: as §1
as §2, with “Intraassay and interassay coefficients of variation were 6.4% and 11.6% respectively.” left out

At-20 cells = experiment: Inhibition of PMA- or forskolin-stimulated ACTH release in At-20 cells by small CRIF peptides; type: cell-based; conditions: PMA 100 nM, FIG. 18
Method: FIG. 19 is a graph and amino acid sequences [SEQ ID NOS:1, 6 and 5, resepctively], where the graph depicts the fact that forskolin-stimulated ACTH secretion is inhibited by peptides derived from prepro-TRH 178-199. The biological activity of small CRIF peptides was tested in vitro, using inhibition of ACTH release in At-20 cells as the bioassay. These peptides were tested in 2-7 independent experiments, where treatments were added in triplicate. Forskolin was used at a concentration of 20 μM, and PMA was used at a concentration of 100 nM.
CRIF peptides having either four contiguous amnino acids or nine contiguous amino acids positioned between the fourth and fifth TRH sequence in a rprepro-TRH polypeptide were prepared. These peptides are referred to herein as rprepro-TRH 196-199 (SEQ ID NO:5, having four contiguous amino acids) and rprepro-TRH 191-199 (SEQ ID NO:6, having nine contiguous amino acids). The CRIF activity of each of these peptides was assessed in vitro in a bioassay, wherein inhibition of ACTH release in At-20 cells was used as a measure of CRIF activity. Full length CRIF (rprepro-TRH 178-199) was used as a positive control. […] Thus, CRIF peptides having less than twenty two contiguous amino acids have CRIF activity.

F344XBN rats = experiment: Forced swim test after sub-acute icv administration; type: in vivo
Method: In FIG. 20 there is shown data which establish that prepro-TRH 191-199 decreased immobility in the forced swim test when the peptide was administered to a rat icv. In this experiment, adult male Sprague-Dawley or F1 Brown Norway/Fisher344 rats were used in these experiments. Rats were implanted with cannulae into the lateral ventricle as described previously (McGivern, 1997, J. Neurosci. 17:4886-4894). For the stereotaxic surgery, animals were anesthetized (ketamine, 50 mg/kg/xylazine, 8 mg/kg) and positioned in a stereotaxic head fame. At the end of behavioral testing, placements will be verified by anesthetizing the animal with pentobarbital (45 mg/kg) and injecting 1 μl tryphan blue staining solution through the cannulae just prior to decapitation. Only data from animals with correct placement were included in the analysis.
At least 7 days after the stereotaxic surgery, animals were subjected to an initial 15 minute swim pretest, followed by a 5-minute swim test 24 hours later. Rats received two injections of sterile vehicle or prepro-TRH 178-199 (1.5, 3.0, 6.0 or 12.0 μg/kg; 0.6, 1.2., 2.3 and 4.6 nmol/kg) in […] between the pretest and the test. 15 minutes after the initial (pre)-swim and 5 minutes before the test swim. In the case of prepro-TRH 191-199 administration, the C-terminal peptide was administered in this sub-acute fashion at 2.2 μg/kg (2.3 nmol/kg) dose, which is equivalent to 6 μg/kg prepro-TRH 178-199. Water was chosen instead of saline or artificial CSF for solubility reasons: the peptide dissolved much better in sterile, pyrogen-free water and animals tolerated this vehicle very well even after 14 days of daily administration. F344XBN rats were used. Prepro-TRH 191-199 had effects very similar to those of the full-length peptide.

[2] = system: SCW-induced inflammatory response; experiment: Thyroid status and SCW-induced inflammatory response in female rats; type: in vivo, rat
From the text: RA is an autoimmune disease characterized by chronic degradation of the joints resulting from inflammation of synovial membranes. SCW-induced inflammation in the autoimmune prone female Lewis rat is an accepted animal model for the study of RA. […] It is likely that increased thyroid activity decreases the susceptibility to inflammatory immune disease by increasing glucocorticoid levels. The discovery of CRIF encoded within the same precursor as TRH establishes a direct link between the HPA and thyroid axes. Thyroid hormones may play a fundamental role in regulating the HPA axis by modulation of levels of prepro-TRH mRNA.
To determine the role played by thyroid hormones and concomitant changes in the HPA axis in the development of SCW-induced inflammatory response, expression of genes which reflect the status of thyroid function (TRH), pituitary-adrenal activity (POMC) and inflammation (IL-1β and MIP-1α, a macrophage specific inflammatory protein) was measured. Adult female rats were fed a regular diet (control), or a regular diet plus 0.012% T4 (hyperthyroid) or 0.05% 6-propyl-thiouracil (PTU) supplied in the in drinking water (hypothyroid), for seven weeks. A preparation of SCW (20 μg/g of body weight) was administered intraperitoneally to the rats three days before decapitation. Anterior pituitary POMC, hypothalamic TRH and peritoneal macrophage IL-1β and MIP-1α mRNA levels were assessed by Northern blot hybridization analysis using specific cDNA probes. The levels of mRNA were normalized to the housekeeping gene, GAPD, and were quantified by image analysis densitometry. Plasma levels of TSH and CORT were determined by RIA.

rats = experiment: Side effects in rats treated in vivo with CRIF

Compound: prepro-TRH 53-74: intervening peptide of rat prepro-TRH, amino acids 53-74 (FLWKDLQRVRGDLGAALDSWIT; UniProt P01150 53-74, looked up, fragment)
- bioactivity: basal and CRF-stimulated ACTH secretion (AtT-20 cells): only the peptide comprising amino acids 178-199 exhibited bioactivity

Compound: prepro-TRH 230-255: intervening peptide of rat prepro-TRH, amino acids 230-255 (DLSRGQETLVKQSPQVEPWDKEPLEE; UniProt P01150 230-255, looked up, fragment)
- bioactivity: basal and CRF-stimulated ACTH secretion (AtT-20 cells): only the peptide comprising amino acids 178-199 exhibited bioactivity
- CRIF activity (ACTH secretion) [1]: only peptide 178-199 exhibited CRIF activity

Compound: Leu-Met-Pro-Glu (LMPE; printed: Leu-Met-Pro-Glu) [prepro-TRH 196-199, CRIF peptide having four contiguous amino acids]
- PMA-stimulated ACTH secretion (At-20 cells): capable of inhibiting ACTH secretion at levels which are comparable to those achieved using full length CRIF

Compound: prepro-TRH 160-169: intervening peptide of rat prepro-TRH, amino acids 160-169 (SFPWMESDVT; UniProt P01150 160-169, looked up, fragment)
- bioactivity: basal and CRF-stimulated ACTH secretion (AtT-20 cells): only the peptide comprising amino acids 178-199 exhibited bioactivity

Compound: EGEGVLMPE [prepro-TRH 191-199, CRIF peptide having nine contiguous amino acids]
- PMA-stimulated ACTH secretion (At-20 cells): capable of inhibiting ACTH secretion at levels which are comparable to those achieved using full length CRIF
- floating in the forced swim test (F344XBN rats; icv sub-acute, equimolar 2.3 nmol/kg (2.2 μg/kg 191-199; 6 μg/kg 178-199), p<0.001): significantly decreased
- climbing in the forced swim test (F344XBN rats; icv sub-acute, equimolar 2.3 nmol/kg (2.2 μg/kg 191-199; 6 μg/kg 178-199), p<0.01): increased
- immobility in the forced swim test (F344XBN rats; icv, rat): decreased

Compound: prepro-TRH 83-106: intervening peptide of rat prepro-TRH, amino acids 83-106 (EEEEKDIEAEERGDLGEGGAWRLH; UniProt P01150 83-106, looked up, fragment)
- bioactivity: basal and CRF-stimulated ACTH secretion (AtT-20 cells): only the peptide comprising amino acids 178-199 exhibited bioactivity

Compound: prepro-TRH 208-220: intervening peptide of rat prepro-TRH, amino acids 208-220 (ALGHPCGPQGTCG; UniProt P01150 208-220, looked up, fragment)
- bioactivity: basal and CRF-stimulated ACTH secretion (AtT-20 cells): only the peptide comprising amino acids 178-199 exhibited bioactivity

Compound: KRQHPGKR [TRH precursor peptide]
- CRIF activity (ACTH secretion) [1]: only peptide 178-199 exhibited CRIF activity

Compound: CCCc1cc(=O)[nH]c(=S)[nH]1 [PTU, 6-propyl-thiouracil]
- increase in macrophage MIP-1α mRNA levels on SCW administration ([2]; SCW 20 μg/g ip, SCW-administered control rats 17-fold): 22 fold
- plasma CORT levels ([2]; altered thyroid status, FIG. 12E): significant decrease
- increase of hypothalamic TRH mRNA levels ([2]; hypothyroid group, 0.05% in drinking water, seven weeks, p<0.01): 52%

Compound: FIDPELQRSWEEKEGEGVLMPE [prepro-TRH 178-199]
- side effects associated with administration (rats): no discernible deleterious side effects

Compound: prepro-TRH 115-151: intervening peptide of rat prepro-TRH, amino acids 115-151 (ANQDKYSWADEEDSDWMPRSWLPDFFLDSWFSDVPQV; UniProt P01150 115-151, looked up, fragment)
- bioactivity: basal and CRF-stimulated ACTH secretion (AtT-20 cells): only the peptide comprising amino acids 178-199 exhibited bioactivity

Compound: prepro-TRH 25-50: intervening peptide of rat prepro-TRH, amino acids 25-50 (LPEAAQEEGAVTPDLPGLENVQVRPE; UniProt P01150 25-50, looked up, fragment)
- bioactivity: basal and CRF-stimulated ACTH secretion (AtT-20 cells): only the peptide comprising amino acids 178-199 exhibited bioactivity
